Results reported in patent US7629318B2, “Immunosuppressant compounds, methods and uses related thereto” (priority 2002, dated 2009).
Square brackets hold non-standard residues; d marks the D form. Peptide text beside a SMILES is read from it. * marks the point of attachment. Tic = O=C(O)[C@@H]1Cc2ccccc2CN1; Cha = N[C@@H](CC1CCCCC1)C(=O)O; NHPhenethyl = c1ccc(CCN*)cc1; Nle = CCCC[C@H](N)C(=O)O

Key:
[1] = test system: T cell activation from 0404(DR14) chimeric MHCII-mice; assay: In vivo inhibition of T cell activation by co-immunisation, DR14 mice immunised with OVA; design: species or system mouse; % Reduction of response to PPD(OVA): concentration or dose not given beside the values; conditions: for % Reduction of response to OVA: DR14 mice co-immunised with OVA plus compound, mean % inhibition from the control over 3 concentrations of antigen (6.7, 20 and 60 ug); for % Reduction of response to PPD(OVA): specificity control: response to PPD in the same cell pool, OVA co-immunised mice
Source text: Mouse strains DR4 and DR14 carry chimeric MHC-II transgenes that encode the N-terminal domains of the respective DR molecules (forming the peptide binding site) and the remaining (2nd extracellular domains, transmembrane and intracytoplasmic domains) of the murine class II molecule I Ed. These strains are deficient of other murine class II, and thus, all helper T cell responses are triggered by peptides presented in the respective human MHC-II binding site. As an initial in vivo test of subject inhibitors designed to bind to DR, DR-transgenic mice were co-immunized with a pre-defined dose of protein antigen and different amounts of the compound antagonist to be tested. In this set-up, both antigen and compound were emulsified together in complete Freund's adjuvant (CFA), and thus, a direct competition between the two components for presentation by DR was tested. Readout of the assay is ex vivo antigen-specific activation of T cells from regional lymph nodes explanted 9 days after co-immunization. In a typical experiment, antigen dose-response was investigated, and the curves from mice immunized with antigen were compared to those from mice co-immunized with antigen+compound. The dose response curves were generated using lymph node cells pooled at equal numbers from 2-3 mice per experimental group. The experimental system also permits assessment of inherent antigenicity of the compound antagonist. This was done by setting up a dose-response study from the same cell pool using different concentrations of the compund under investigation instead of the antigen. As a specificity control, the response to Purified Protein Derivative (PPD), the major protein component of CFA, was tested in the same cell pool.
All Gpg conataining compounds have significant immunosupressive properties in one or both of the in-vivo models. Gpg-containing compounds also show improved activity or improved specificity over the Arg-containing equivilent. Further, compounds according to Formula I show activity in this assay.
Compounds of the invention were injected as an Emulsion prepared using CFA (Bacto Adjuvant Complete H37 Ra, Difco, Order-No. 3113-60); proteins 10 mg/ml in PBS, inhibitors 5 μM in 10% DMSO. CFA, PBS, antigen, and inhibitor were placed in the barrel of a 5-ml syringe (total volume not more than 1 mL). The mixture was sonicated at an amplitude less than 40% (30-35%) for two separated 15 s periods. The emulsion should seem to be hard and not liquid at this point. A drop of emulsion placed on the surface of water should not melt. The resulting emulsion was pushed through the needle into a 1 ml syringe with a needle (Gr.18, 26G×1″), and air bubbles were removed. Mice were co-immunized with 50 μg protein and 210 nM compound antagonist in final 100 μl emulsion into the tail base. Antigen+Compound and CFA are mixed 1:1 vol/vol. The best results are obtained using DR 4 mice immunised with HEL and DR 14 mice immunized with OVA.
Mice were injected at the tail-base as follows: Holding the tail of a mouse with thumb and middle finger, the index finger was placed under the base of the mouse's tail. The needle of the syringe was inserted about 1.5 cm from the tail base (hairy end) under the skin and pushed about 1 cm into the tail. 100 μl emulsion was injected into the mouse. After 9 days, mice were killed and lymph nodes removed.
The inhibitory effect of the candidate compounds on T-cell activation was tested using T-cells and antigen-presenting cells isolated from the lymph nodes of chimeric DR4-IE transgenic mice (Taconic, USA) previously co-immunized with hen egg lysozyme plus compound, or DR14-IE transgenic mice co-immunized with ovalbumin plus compound according to standard procedures (Adorini et al., 1988, Mueller et al., 1990; Current Protocols in Immunology, Vol. 2, 7.21; Ito et al., 1996). […]

[2] = target: DR4Dw4 (DRA1*0101 DRB1*0401) (Homo sapiens, UniProt P01903+P01911, A100K/A169T/F76Y/I96L/K127E/L162R/M171V/N62H/P40V/Q125Y/R42H/S133A/S149N/S66Y/V115G/V209L/W38E); assay: Competitive binding to MHC-II protein DR4Dw4
Description: (§1) Interaction mixtures lacking the peptidomimetic compound and both peptide mimetic compound and MHC-II were used as positive and negative controls, respectively. All interaction mixtures were set up in duplicates and were incubated for 16 hours at room temperature.
(§2) After washing with PBS, 60 μl of the MHC-II-compound interaction mixtures were transferred from the interaction plate to the appropriate wells of the capture plate and incubated for 2 h at 4° C. The wells were washed six times with 200 μl/well of cooled (4 to 8° C.) 1×DELFIA wash (Wallac-ADL-GmbH, Freiburg), incubated with 100 μl of cooled Europium-streptavidin conjugate (Wallac-ADL-GmbH, Freiburg; diluted 1/1000 with DELFIA assay buffer) for 30 minutes at 4° C., again washed six times with cooled 1×DELFIA wash and, finally, incubated with 200 μl cooled DELFIA enhancement solution (Wallac-ADL-GmbH, Freiburg) for one hour at room temperature before reading the time-resolved europium fluorescence at λex Eu^3+: 340 nm and λem Eu^3+: 613 (615) nm (Wallac Victor^2 1420 Multilabel Counter, Wallac-ADL-GmbH, Freiburg).

[3] = target: DR1 (DRA1*0101 DRB1*0101) (Homo sapiens, UniProt P01903+P01911, A100R/D57E/F55L/F60I/F76Y/I96L/L162R/M171V/P40L/Q125E/R42F/V115G/Y59C); assay: Competitive binding to MHC-II protein DR1; conditions: Protein binding IC50 (nM) 0101, 0101
Description: as §1, §2

[4] = target: DR4Dw14 (DRA1*0101 DRB1*0404) (Homo sapiens, UniProt P01903+P01911, A100R/A169T/F76Y/I96L/K127E/L162R/M171V/N62H/P40V/Q125Y/R42H/S133A/S149N/S66Y/V209L/W38E); assay: Competitive binding to MHC-II protein DR4Dw14; conditions: 0404; read-out: Protein binding IC50 (nM) 0404
Description: as §1, §2

[5] = Stability of compounds in rat blood plasma; type: in vitro ADME
Description: (§3) The stability of the peptidomimetic compounds was determined in rat (Charles River Laboratories, Sulzfeld), mouse (Charles River Laboratories, Sulzfeld) and human (Bayerisches Rotes Kreuz, München) blood plasma (E. R. Garrett and M. R. Gardner, J Pharmaceutical Sciences 71 (1982) 14-25).
(§4) Compound stock solutions were diluted into blood plasma to give a final compound concentration of 5 μM and the mixtures were incubated at 37° C. At 0, 6 and 24 hours 1 ml samples were drawn and the plasma proteins were precipitated by the addition of 3 ml acetonitrile p.a. and whirlmixing. The precipitate was pelleted by centrifugation at 2000 g for 5 minutes. The supernatant was evaporated off to dryness and the residue was reconstituted in 400 μl 50% acetonitrile, 0.1% TFA in water.
(§5) PBS controls were prepared for unstable compounds accordingly.

[6] = Stability of compounds in mouse blood plasma; type: in vitro ADME
Description: as §3, §4, §5

[7] = Stability of compounds in human blood plasma; type: in vitro ADME
Description: as §3, §4, §5

[8] = test system: T-cell proliferation, lymph node cells of chimeric 0401-IE transgenic mice; conditions: DR4-LN
Description: The compounds were tested as follows to inhibit the proliferative T cell response of antigen-primed lymph node cells from mice carrying a chimeric mouse-human class II transgene with an RA-associated peptide binding site, and lack murine class II molecules (Muller et al., 1990; Woods et al., 1994; Current Protocols in Immunology, Vol. 2, 7.21; Ito et al., 1996). Here, the immunization takes place in vivo, but the inhibition and readout are ex vivo. […] These mice lack murine MHC class II, and thus, all Th responses are channelled through a single human RA-associated MHC class II molecule (Ito et al. 1996). These transgenic mice represent a model for testing human class II antagonists.
1.5×10^5 cells are incubated in 0.2 ml wells of 96-well tissue culture plates in the presence of ovalbumin (30 μg per well—half-maximal stimulatory concentration) and a dilution series of the compound under test (from around 0.1 to 200 uM) in serum free HL-1 medium containing 2 mM L-glutamine and 0.1 g/l Kanamycin for three days. Antigen specific proliferation is measured by 3H-methyl-thymidine (1 μCi/well) incorporation during the last 16 h of culture (Falcioni et al., 1999). Cells are harvested, and 3H incorporation measured using a scintillation counter (TopCount, Wallac Finland).

[9] = target: Cathepsin B1 (EC 3.4.22.1 from bovine spleen) (Bos taurus, UniProt P07688); conditions: Cathepsin B, 4 h

Compound | % Reduction of response to OVA [1] [%] | % Reduction of response to PPD(OVA) [1] [%] | IC50 [2] [µM] | IC50 [3] [nM] | IC50 [4] [nM] | Stability (Arbitrary units) Rat 6 h [5] [Arbitrary units] | Stability (Arbitrary units) Mouse 6 h [6] [Arbitrary units] | Stability (Arbitrary units) Mouse 24 h [6] [Arbitrary units] | Stability (Arbitrary units) Human 6 h [7] [Arbitrary units] | Stability (Arbitrary units) Human 24 h [7] [Arbitrary units] | Immunsupressive assays DR4-LN (Max) % Inhibition ([8]; maximal inhibition) [%] | IC50 ([8]; read-out: Immunsupressive assays DR4-LN (IC50)) [µM] | Stability (Arbitrary units) Cath B 4 h [9] [Arbitrary units]
Ac-Hfe-Gpg-Tic-Nle-βPhPro-[S(oxaz)L]-NMe2 [Compound P57] | 52.6 | 52.4 | – | – | – | – | – | – | – | – | – | – | –
CCCC[C@H](NC(=O)[C@@H]1Cc2ccccc2CN1C(=O)[C@H](CCCNC(=N)N)NC(=O)[C@H](CC1CCCCC1)NC(C)=O)C(=O)NCCc1ccccc1 [Compound P82, Ac-Cha-Arg-Tic-Nle-N(H)CH2CH2Ph] (Ac-[Cha]R[Tic][Nle]-NHPhenethyl) | 25 | 5 | 18 | 3100 | 14000 | 65 | 79 | 31 | 94 | 72 | 100 | 27 | 105
